The series can be described thus: photoluminescence quantum yield (fraction); solvent given as SMILES.

For `COC(=O)C(Cc1ccc2oc(-c3ccc(N(c4ccccc4)c4ccccc4)cc3)nc2c1)NC(=O)OC(C)(C)C` (stereo not given), the photoluminescence quantum yield was determined as 0.87 (in C1CCCCC1); 0.77 (in C1CCOC1); 0.47 (in C1COCCO1); 0.94 (in CC1CCCCC1); 0.67 (in CC1COC(=O)O1); 0.62 (in CC#N). Moreover, the photoluminescence quantum yield reads like this: (in CC(C)=O) 0.68; (in CC(C)O) 0.77; (in CC(O)CO) 0.63; (in CCCCCC) 0.98; (in CCCCCCCC) 0.99; (in CCCCCO) 0.76. Moreover, the photoluminescence quantum yield is, setting by setting: (in CCCCO) 0.87; (in CCO) 0.61; (in CCOC(C)=O) 0.8; (in CN(C)C=O) 0.72; (in CO) 0.42; (in COCCOC) 0.44. Besides, the photoluminescence quantum yield reads like this: (in CS(C)=O) 0.69; (in ClC(Cl)Cl) 0.88; (in ClCCl) 0.87; (in N#Cc1ccccc1) 0.26; (in NC=O) 0.35; (in O) 0.003. The photoluminescence quantum yield (in OCC(F)(F)F) came to 0.05.
Under “in ClCCl”, `Cn1c2ccccc2c2cc(/C=C/C3=[O+][B-](F)(F)OC(/C=C/c4ccc5c(c4)c4ccccc4n5C)=C3c3ccccc3)ccc21` registered a photoluminescence quantum yield of 0.6.
Molecule `C#Cc1ccc2ccc3oc(=O)cc(C)c3c2c1` returned a photoluminescence quantum yield (in CCO) of 0.23.
As for `Cc1ccc(C2=C3C=CC(c4ccccc4)=[N+]3[B-](F)(F)n3c2ccc3-c2ccccc2)cc1`, the photoluminescence quantum yield was 0.31 (in C1CCCCC1); 0.22 (in C1CCOC1); 0.25 (in C1COCCO1); 0.2 (in CCOC(C)=O); 0.21 (in CO); 0.42 (in Cc1ccccc1). This molecule also showed a photoluminescence quantum yield (in ClC(Cl)Cl) of 0.31.
On to `CC(=O)c1ccc(-c2nc3ccc(N(C)C)c(Br)c3s2)cc1`, for which the photoluminescence quantum yield by setting is: (in C1CCCCC1) 0.11; (in CC#N) 0.54; (in CO) 0.046; (in ClC(Cl)Cl) 0.82.
Where the note is “in C1CCCCC1”, `Cc1ccccc1C` came in with a photoluminescence quantum yield of 0.26.
`CCCN1C(=O)C(=CC=CC=C2Oc3ccccc3N2CCCS(=O)(=O)[O-])C(=O)N(CCC)C1=S` yielded a photoluminescence quantum yield (in CC(C)=O) of 0.41; a photoluminescence quantum yield (in CCCCO) of 0.37; a photoluminescence quantum yield (in CCO) of 0.25; a photoluminescence quantum yield (in CO) of 0.17; a photoluminescence quantum yield (in ClC(Cl)Cl) of 0.32; a photoluminescence quantum yield (in O) of 0.04.
In turn, `CC(C)(C)c1ccc(-c2c(-c3ccc(-n4c5ccccc5c5ccccc54)cc3)cc(-c3ccc(-n4c5ccccc5c5ccccc54)cc3)c(-c3ccc(C(C)(C)C)cc3)c2-c2ccc(C(C)(C)C)cc2)cc1` yielded a photoluminescence quantum yield (in C1CCOC1) of 0.343.
The molecule `COCCC1=Cc2nc1ccc1[nH]c(cc1CCOC)c1nc(c(OC(C)=O)cc3[nH]c2cc3CCOC)C(CCOC)=C1` yielded a photoluminescence quantum yield (in Cc1ccccc1) of 0.27.
For the molecule `Cc1cc(C#Cc2ccccc2)c2ccc3c(C#Cc4ccccc4)cc(C#Cc4ccccc4)c4ccc1c2c43`, the photoluminescence quantum yield is, setting by setting: (in CS(C)=O) 0.72; (in ClC(Cl)(Cl)Cl) 0.56.
With `COC(=O)C(Cc1ccc2oc(-c3ccc4c(c3)c3ccccc3n4-c3ccccc3)nc2c1)NC(=O)OC(C)(C)C` (stereo not given), the photoluminescence quantum yield by setting is: (in C1CCCCC1) 0.76; (in C1CCOC1) 0.84; (in C1COCCO1) 1; (in CC1CCCO1) 0.93; (in CC1COC(=O)O1) 1; (in CC#N) 0.99. Besides, the photoluminescence quantum yield (in CC(C)=O) came to 0.63; the photoluminescence quantum yield (in CC(C)CC(C)(C)C) was determined as 0.86; the photoluminescence quantum yield (in CC(C)CO) came out at 1; the photoluminescence quantum yield (in CC(C)O) was 1; the photoluminescence quantum yield (in CC(C)OC(C)C) was 0.55; the photoluminescence quantum yield (in CC(O)CO) was determined as 1. The photoluminescence quantum yield runs as follows: (in CCC(C)CC) 0.59; (in CCCCC) 0.59; (in CCCCCC) 0.58; (in CCCCCCCCC) 0.72; (in CCCCCCCCCC) 0.75; (in CCCCCCCO) 1. The photoluminescence quantum yield runs as follows: (in CCCCCCO) 0.94; (in CCCCCO) 1; (in CCCCO) 1; (in CCO) 1; (in CCOC(C)=O) 0.96; (in CCOCC) 0.68. Also, the photoluminescence quantum yield runs as follows: (in CN(C)C=O) 1; (in CO) 0.99; (in COCCOC) 0.7; (in CS(C)=O) 0.88; (in Cc1ccccc1) 0.78; (in Cc1ccccc1C) 0.92. Moreover, the photoluminescence quantum yield runs as follows: (in ClC(Cl)Cl) 0.93; (in ClCCl) 0.94; (in NC=O) 0.82; (in OC1CCCCC1) 0.95; (in OCCO) 1; (in c1ccccc1) 0.97.
Consider `Brc1ccc2cc3c4ccccc4nc(-c4ccco4)c3n2c1`, for which, where the note is “in CS(C)=O”, the photoluminescence quantum yield was 0.03.
`COc1ccc(C2=[N+]3C(=Cc4c5ccc(OC)cc5c(-c5ccc(OC)cc5)n4[B-]3(F)F)c3ccc(OC)cc32)cc1` showed a photoluminescence quantum yield (in ClCCl) of 0.49.
The molecule `COc1ccccc1-c1cc2c(o1)=CC1=Cc3cc4oc(-c5ccccc5OC)cc4n3[B-](F)(F)[N+]=21` returned a photoluminescence quantum yield (in ClC(Cl)Cl) of 0.91.
The molecule `Cc1cc(C)c(B(c2ccccc2-n2c3ccccc3c3ccccc32)c2c(C)cc(C)cc2C)c(C)c1` had a photoluminescence quantum yield (in Cc1ccccc1) of 0.79.
`CN(C)c1ccc(C=C/C=C/C=C/c2ccc(C#N)cc2)cc1` gave a photoluminescence quantum yield (in C1CCOC1) of 0.112; a photoluminescence quantum yield (in CC#N) of 0.261; a photoluminescence quantum yield (in CCCC#N) of 0.142; a photoluminescence quantum yield (in CCCCCC) of 0.072; a photoluminescence quantum yield (in CCCCOCCCC) of 0.081; a photoluminescence quantum yield (in CCO) of 0.211. This molecule also displayed a photoluminescence quantum yield (in CCOCC) of 0.092.
In turn, `CC[N+]1(CC)CN2C(=N1)C(C(=O)O)=Cc1cc(F)ccc12` had a photoluminescence quantum yield (in O) of 0.344.
As for `COC(=O)c1cc(=O)n(C)c2cc(-c3cccc(N(C)C)c3)sc12`, the photoluminescence quantum yield by setting is: (in CC#N) 0.03; (in ClCCl) 0.01.
As for `COC(=O)C(NC(=O)OC(C)(C)C)c1ccc2oc(-c3cc(C(F)(F)F)cc(C(F)(F)F)c3)nc2c1` (stereo not given), the photoluminescence quantum yield (in CC1CCCCC1) amounted to 0.54, the photoluminescence quantum yield (in CC#N) was 0.46 and the photoluminescence quantum yield (in CO) came to 0.44.
For `C/C=C/C1=NC(=C\c2ccc([O-])cc2)/C(=O)N1C`, the photoluminescence quantum yield (in O) turned out to be 0.0006.
`N#CC1=CC(C=O)=CC(C#N)=P1(c1ccccc1)c1ccccc1` came in with a photoluminescence quantum yield (in ClC(Cl)Cl) of 0.72.
Regarding `COc1cc2c3c4c(c5ccc(C(C)(C)C)cc5c5cc(C(C)(C)C)cc(c2c(OC)c1OC)c45)=[N+]1C3=Nc2c3c4cc(OC)c(OC)c(OC)c4c4cc(C(C)(C)C)cc5c6cc(C(C)(C)C)ccc6c(c3c54)n2[B-]1(F)F`, the photoluminescence quantum yield (in Cc1ccccc1) is 0.07.
Molecule `c1cnc(-c2c3ccccc3c(-c3ncccn3)c3ccccc23)nc1` came in with a photoluminescence quantum yield (in ClCCl) of 0.79.
Turning to `CC(C)(C)c1ccc2c3ccccc3c3cncnc3c2c1`, the photoluminescence quantum yield (in ClCCl) was 0.03.
Turning to `N#Cc1ccc(C2=CC3=c4cc(-c5ccc(C#N)cc5)c5nc(C(F)(F)C(F)(F)C(F)(F)F)nc6c(-c7ccc(C#N)cc7)cc(c4c65)C4=CC(c5ccc(C#N)cc5)=C5N=C(C(F)(F)C(F)(F)C(F)(F)F)N=C2C5C43)cc1` (stereo not given), the photoluminescence quantum yield (in C1CCOC1) is 1.
`CCOC(=O)c1c2c3c(ccc(C)c3c3cc4c(cc13)[Si](C)(C)O[Si]4(C)C)N(C)C2=O`: the photoluminescence quantum yield (in CC#N) turned out to be 0.4.
Take `C/C=C/C=C/C1=NC(=C\c2ccc(O)cc2)/C(=O)N1C`: the photoluminescence quantum yield was 0.01 (in ClC(Cl)Cl) and 0.0008 (in O).
As to `COc1ccc(N(c2ccc(OC)cc2)c2ccc(-c3ccc(-c4ccc(-c5ccc(-c6ccc(N(c7ccc(OC)cc7)c7ccc(OC)cc7)cc6)s5)c5nsnc45)s3)cc2)cc1`, the photoluminescence quantum yield (in ClC(Cl)Cl) is 0.18.
`N#Cc1ccc(/C=C/C(F)(F)F)c(N)c1`: the photoluminescence quantum yield (in C1CCOC1) is 0.82.
With `CCC1(CC)c2cc(/C=C/c3ccc(/C=C/c4ccc5c(c4)C(CC)(CC)c4cc(N6c7ccccc7Sc7ccccc76)ccc4-5)cc3)ccc2-c2ccc(N3c4ccccc4Sc4ccccc43)cc21`, the photoluminescence quantum yield is, setting by setting: (in C1CCOC1) 0.33; (in CC#N) 0.26; (in CCCCCC) 0.72; (in Cc1ccccc1) 0.58; (in ClCCl) 0.33.
With `NS(=O)(=O)c1ccc(N2N=C(c3ccc(O)cc3)CC2c2ccccc2)cc1` (stereo not given), the photoluminescence quantum yield runs as follows: (in C1CCOC1) 0.65; (in C1COCCO1) 0.63; (in CC#N) 0.6; (in CC(C)O) 0.44; (in CCO) 0.36; (in CCOC(C)=O) 0.66. Also, the photoluminescence quantum yield was found to be 0.68 (in CN(C)C=O), 0.28 (in CO), 0.7 (in CS(C)=O) and 0.41 (in O).
As for `CC1=[N+]2C(=C(c3ccc4c(c3)Cc3ccccc3-4)c3ccc(C)n3[B-]2(F)F)C=C1c1cc2n(c1)[B-](F)(F)[N+]1=CC=CC1=C2c1c(C)cc(C)cc1C`, the photoluminescence quantum yield is, setting by setting: (in C1CCCCC1) 0.65; (in CCOC(C)=O) 0.11.

Source of the values: the Deep4Chem optical property database.
